Key:
Type in all cases: cell-based
HIV = test: Test A: inhibition of the HIV-induced cytopathic effect in MT-4 cells (MTT); details: Test A; MT-4 cells, MTT; pIC50 = −log IC50, dose achieving 50% protection
Description: (§1) A rapid, sensitive and automated assay procedure was used for the in vitro evaluation of anti-HIV agents. An […] T4-cell line, MT-4, which was previously shown (Koyanagi et al., Int. J. Cancer, 36, 445-451, 1985) to be highly susceptible to and permissive for HIV infection, served as the target cell line. Inhibition of the HIV-induced cytopathic effect was used as the end point. The viability of both HIV- and mock-infected cells was assessed spectrophotometrically via the in situ reduction of 3-(4,5-dimethylthiazol-2-yl)-2,5-diphenyltetrazolium bromide (MTT). […] The percent protection achieved by the compound in HTV-infected cells was calculated by the following formula:
(§2) [formula] whereby (ODT)HIV is the optical density measured with a given concentration of the test compound in HIV-infected cells; (ODC)HIV is the optical density measured for the control unteated HIV-infected cells; (ODC)MOCK is the optical density measured for the control untreated mock-infected cells; all optical density values were determined at 540 nm. […] The ratio of CC50 to IC50 was defined as the selectivity index (SI).

mock-infected MT-4 cells [1] = test: Test A: cytotoxicity in mock-infected MT-4 cells (MTT)
Description: as §1, §2

mock-infected MT-4 cells [2] = test: Test B: cytotoxicity in mock-infected MT-4 cells engineered with GFP under a constitutional promoter
Description: An […] T4-cell line, MT-4, which was previously shown (Koyanagi et al., Int. J. Cancer, 36, 445-451, 1985) to be highly susceptible to and permissive for HIV infection, served as the target cell line. In these cells, engineered with GFP (and an HIV-specific promotor), ongoing HIV-infection was measured fluorometrically. Cytotoxicity is measured in the same cells, but engineered with GFP under a constitutional promoter. The infection (or inhibition thereof) of HIV infected cells and the flourescence of mock-infected cells is assessed by the fluorescent GFP signal generated by the two above mentioned cell lines.

[3] = Test A, mock-infected MT-4 cells, MTT, 50% cytotoxic concentration (CC50 in M)

SMILES	pIC50 (M) (HIV)	PCC50 (mock-infected MT-4 cells [1])	PCC50 (mock-infected MT-4 cells [2])	PCC50 (mock-infected MT-4 cells [1]; [3])
Cc1nnc(Nc2ccc(C#N)cc2)nc1Nc1c(Cl)cc(/C=C/C#N)cc1Cl [Compound 34]	8.6	5.0		
COc1cc(/C(C)=C/C#N)cc(Cl)c1Nc1nc(Nc2ccc(C#N)cc2)nnc1C [Compound 68]			5.2	
CNC(=O)c1cc(C)c(Nc2cnnc(Nc3ccc(C#N)cc3)n2)c(C)c1 [Compound 37]	7.0	4.3		
Cc1cc(CC#N)cc(C)c1Nc1cnnc(Nc2ccc(C#N)cc2)n1 [Compound 24]	8.8	<4.6		
Cc1cc(C(C)(C)C)cc(C)c1Nc1cnnc(Nc2ccc(C#N)cc2)n1 [Compound 17]	8.0	<4.0		
CCN(C)C(=O)/C=C/c1cc(C)c(Oc2nc(Nc3ccc(C#N)cc3)nnc2C)c(C)c1 [Compound 57]			4.7	
COc1cc(C(C)=CC#N)cc(C)c1Nc1nc(Nc2ccc(C#N)cc2)nnc1C [Compound 66]			5.7	
Cc1cc(OCC#N)cc(C)c1Nc1cnnc(Nc2ccc(C#N)cc2)n1 [Compound 41]	7.6	<4.6		
COc1cc(/C=C/C#N)cc(Cl)c1Nc1nc(Nc2ccc(C#N)cc2)nnc1C [Compound 70]			6.2	
COc1cc(/C=C/C#N)cc(OC)c1Nc1nc(Nc2ccc(C#N)cc2)nnc1C [Compound 33]	8.6	5.4		
Cc1cc(C#N)cc(C)c1Nc1nc(Nc2ccc(C#N)cc2)nnc1C [Compound 5]	8.7	<4.0		
COc1cc(OC)c(Nc2nc(Nc3ccc(C#N)cc3)nnc2C)c(OC)c1 [Compound 25]	8.6	4.4		
Cc1cc(C)c(Nc2nc(Nc3ccc(C#N)cc3)nnc2C)c(CC#N)c1 [Compound 27]	8.3	<4.0		
Cc1cc(C)c(Sc2nc(Nc3ccc(C#N)cc3)nnc2Cl)c(C)c1 [Compound 46]	7.9			<4.6
Cc1cc(C)c(Nc2cnnc(Nc3ccc(C#N)cc3)n2)c(C)c1 [Compound 7]	9.3			5.5
Cc1cc(C=CC#N)cc(C)c1Nc1nnc(Cl)c(Nc2ccc(C#N)cc2)n1 [Compound 53]			4.9	
CCOc1cc(C)c(Nc2nc(Nc3ccc(C#N)cc3)nnc2C)c(C)c1 [Compound 35]	8.2	<4.6		
N#CCCc1cc(Br)c(Nc2nnc(Cl)c(Nc3ccc(C#N)cc3)n2)c(Br)c1 [Compound 73]			<4.6	
Cc1cc(CCC#N)cc(C)c1Nc1nc(Nc2ccc(C#N)cc2)nnc1C [Compound 2]	9.0	<4.0		
N#CC=Cc1cc(Br)c(Nc2nnc(Cl)c(Nc3ccc(C#N)cc3)n2)c(Br)c1 (mixture of isomers) [Compound 78]			5.1	
C/C(=C\C#N)c1cc(Cl)c(Nc2nc(Nc3ccc(C#N)cc3)nnc2C)c(Cl)c1 [Compound 61]			5.4	
CNC(=O)/C=C/c1cc(C)c(Oc2nc(Nc3ccc(C#N)cc3)nnc2C)c(C)c1 [Compound 56]			4.8	
N#C/C=C/c1cc(Cl)c(Nc2nnc(Cl)c(Nc3ccc(C#N)cc3)n2)c(Br)c1 [Compound 77]			5.0	
Cc1cc(/C=C/C(=O)N2CCCC2)cc(C)c1Nc1nc(Nc2ccc(C#N)cc2)nnc1C [Compound 39]	7.2	<4.0		
Cc1cc(CCC#N)cc(C)c1Nc1cnnc(Nc2ccc(C#N)cc2)n1 [Compound 9]	7.8	<4.0		
Cc1cc(C)c(Nc2nnc(Cl)c(Nc3ccc(C#N)cc3)n2)c(C)c1 [Compound 45]	7.6	<4.6		
Cc1cc(Br)cc(C)c1Nc1cnnc(Nc2ccc(C#N)cc2)n1 [Compound 15]	8.8	<4.0		
Cc1cc(/C=C\C#N)cc(C)c1Nc1nc(Nc2ccc(C#N)cc2)nnc1C [Compound 19]	9.0	4.6		

SMILES	pIC50 (M) (HIV)	PCC50 (mock-infected MT-4 cells [1])	PCC50 (mock-infected MT-4 cells [2])	PCC50 (mock-infected MT-4 cells [1]; [3])
Cc1cc(/C=C/C(=O)N2CCOCC2)cc(C)c1Oc1nc(Nc2ccc(C#N)cc2)nnc1C [Compound 47]	8.1	<4.6		
COc1cc(C)c(Nc2nc(Nc3ccc(C#N)cc3)nnc2C)c(C)c1 [Compound 11]	9.2	5.5		
Cc1cc(Br)cc(C)c1Nc1nc(Nc2ccc(C#N)cc2)nnc1C [Compound 16]	8.7	4.2		
Cc1cc(CC#N)cc(C)c1Nc1nc(Nc2ccc(C#N)cc2)nnc1C [Compound 20]	8.6	<4.6		
Cc1cc(/C=C/C#N)cc(C)c1Nc1cnnc(Nc2ccc(C#N)cc2)n1 [Compound 8]	7.3	<4.0		
COc1cc(C)c(Nc2cnnc(Nc3ccc(C#N)cc3)n2)c(C)c1 [Compound 14]	8.8	<4.0		
Cc1cc(/C=C/C(=O)N(C)C)cc(C)c1Nc1nc(Nc2ccc(C#N)cc2)nnc1C [Compound 22]	7.1	<4.6		
N#C/C=C/c1cc(Cl)c(Nc2nnc(Cl)c(Nc3ccc(C#N)cc3)n2)c(Cl)c1 [Compound 76]			<4.6	
CC(C#N)=Cc1cc(C)c(Nc2nc(Nc3ccc(C#N)cc3)nnc2C)c(C)c1 [Compound 42]	9.1	4.8		
Cc1cc(/C=C/C#N)cc(Cl)c1Nc1nc(Nc2ccc(C#N)cc2)nnc1C [Compound 65]			5.3	
Cc1cc(OCC#N)cc(C)c1Nc1nc(Nc2ccc(C#N)cc2)nnc1C [Compound 38]	8.9	4.7		
Cc1cc(/C=C/C#N)cc(C)c1Nc1nc(Nc2ccc(C#N)cc2)nnc1C [Compound 13]	8.2	<4.0		
COc1cc(C)cc(C)c1Nc1nc(Nc2ccc(C#N)cc2)nnc1C [Compound 23]	8.9	6.4		
CCNC(=O)c1cc(C)c(Nc2cnnc(Nc3ccc(C#N)cc3)n2)c(C)c1 [Compound 51]			5.1	
COc1cc(C)c(Nc2nnc(Cl)c(Nc3ccc(C#N)cc3)n2)c(C)c1 [Compound 64]			4.7	
COc1cc(/C(C)=C/C#N)cc(OC)c1Nc1nc(Nc2ccc(C#N)cc2)nnc1C [Compound 67]			4.9	
COc1cc(/C=C/C#N)cc(C)c1Nc1nc(Nc2ccc(C#N)cc2)nnc1C [Compound 60]			6.0	
C/C(=C\C#N)c1cc(C)c(Nc2nc(Nc3ccc(C#N)cc3)nnc2C)c(Cl)c1 [Compound 69]			5.7	
N#Cc1ccc(Nc2nncc(Nc3c(Cl)cc(C#N)cc3Cl)n2)cc1 [Compound 10]	7.6			<4.5
Cc1cc(/C=C/C#N)cc(C)c1Nc1nc(Nc2ccc(C#N)cc2)nnc1Cl [Compound 54]			4.9	
Cc1cc(C(=O)N(C)C)cc(C)c1Nc1cnnc(Nc2ccc(C#N)cc2)n1 [Compound 52]			<4.6	
Cc1cc(C(C)(C)C)cc(C)c1Nc1nc(Nc2ccc(C#N)cc2)nnc1C [Compound 18]	8.1	<4.0		
Cc1cc(C(=O)N(C)C)cc(C)c1Nc1nc(Nc2ccc(C#N)cc2)nnc1C [Compound 31]	7.5	<4.0		
COc1cc(C=C(C)C#N)cc(C)c1Nc1nc(Nc2ccc(C#N)cc2)nnc1C [Compound 71]			5.1	
COc1cc(CCC#N)cc(OC)c1Nc1nc(Nc2ccc(C#N)cc2)nnc1C [Compound 40]	8.6	5.0		
CCOc1cc(C)c(Nc2cnnc(Nc3ccc(C#N)cc3)n2)c(C)c1 [Compound 43]	8.1	<4.6		
Cc1cc(C)c(Nc2nc(Nc3ccc(C#N)cc3)nnc2C)c(C)c1 [Compound 12]	8.9			

Source: patent US7585861B2, “HIV inhibiting 1,2,4-triazines” (Janssen Pharmaceutica, N.V., priority 2003, dated 2009)
